Measured values reported in publication PMC12593371, “Whole-Body Disposition and Metabolism of [^14C]-2,4,4′-Trichlorobiphenyl (PCB28) Following Lung Administration in Rats” (Environmental Science & Technology, 2025).

Assay: Toxicokinetic parameters by noncompartmental analysis after intratracheal administration of [14C]-PCB28
Assay type: in vivo, Male Sprague–Dawley rats
Text: Male Sprague–Dawley rats (8 weeks old) weighing 230–285 g (mean of 256 g) were used in this study (Envigo, Indianapolis, IN). Male rats were selected to maintain consistency with previous toxicokinetic investigations of lower-chlorinated PCBs, specifically the study on intratracheally instilled ^14C-labeled dichlorinated PCB11, which also utilized male rats. This approach facilitated direct comparison across studies and contributed to a more comprehensive toxicokinetic data set for LC-PCBs following inhalation exposure. A PCB toxicokinetic study being published separately investigated placental transfer and fetal uptake in pregnant females. All animals were handled in compliance with an approved Institutional Animal Care and Use Committee protocol (protocol#: 3091097 approved on 10/12/2023). Rats were pair-housed in a light and temperature-controlled environment with access to food and water ad libitum. After 1 week of acclimatization, rats were assigned to either a high-dose (HD) group (n = 9) or a low-dose (LD) group (n = 5) at random. Control rats (n = 3) were exposed to a single dose of unlabeled PCB28 (42 μg in 200 μL) and necropsied 50 min after exposure to establish background levels for radioactivity calculations in blank tissues. […] Therefore, animal numbers were customized between groups to most efficiently utilize the limited available ^14C-PCB28 stock in our lab.
Animals in the HD group were intratracheally (i.t.) administered 42 μg of a one-time single dose of [^14C]-PCB28 in 200 μL of vehicle, while animals in the LD group received 4.2 μg of [^14C]-PCB28 in 100 μL of vehicle. The i.t. route for dosing was selected due to the limited availability and extraordinary cost of the radiolabeled PCB28, and to avoid ^14C contamination of the inhalation exposure apparatus. All i.t. instillation was performed under light anesthesia (4% isoflurane via a precision vaporizer Fortec, Cyprane, Keighley, UK). […] Air was drawn from the chamber at 6.0 L/min through a cartridge containing XAD-2 polymeric resin (Amberlite, Millipore Sigma, Burlington, MA) to capture any exhaled [^14C]-PCB28. For the longer time points (720 and 1440 min), individual rats were placed in metabolic cages following a similar protocol for excreta and exhaled breath collection. After exposure, the inner walls of the chamber were rinsed separately with water, acetone, and hexane (25 – 45 mL) and wiped to measure radioactivity. Rat fur was also wiped and analyzed for radioactivity. The rats exposed to the HD were euthanized using isoflurane and exsanguination via cardiac puncture at 12, 25, 50, 100, 200, 400, 720, and 1440 min postexposure (n = 1 per time point except n = 2 for 200 min). […] Euthanasia was consistently performed during the light cycle, except in the case of the 720 min time point, wherein euthanasia occurred outside the light cycle.
Serum and blood cells were separated. Two to six technical replicates were collected from 36 tissue types and digestive matter (diluted in ultrapure water) from 5 different GI tract locations. Muscle and adipose tissue samples were obtained from various locations. The collected tissue samples were placed in scintillation vials containing 1 mL of solvable cocktail and kept at 37 °C overnight for complete solubilization. To enable subsequent analyses, the solubilized tissue samples underwent a 2-h heating phase at 50 °C. For the bone, feces, and digestive matter, 1 mL of isopropyl alcohol was added. For samples displaying darker coloration, a controlled volume of 30% hydrogen peroxide (100 to 300 μL) was slowly added in increments to remove potential interference.

## Clc1ccc(-c2ccc(Cl)cc2Cl)cc1 [PCB28, 2,4,4′-trichlorobiphenyl]
Adipose tissue
  AUC, high dose compared to low dose: 18.7 fold
adipose, high dose (42 μg i.t.)
  C24: 385 dpm/mg
adipose, low dose (4.2 μg i.t.)
  C24: 63.7 dpm/mg
bladder, high dose (42 μg i.t.)
  C24: 8.0 dpm/mg
bladder, low dose (4.2 μg i.t.)
  C24: 6.4 dpm/mg
brain, high dose (42 μg i.t.)
  C24: 11.0 dpm/mg
brain, low dose (4.2 μg i.t.)
  C24: 2.4 dpm/mg
bronchi, high dose (42 μg i.t.)
  C24: 205 dpm/mg
bronchi, low dose (4.2 μg i.t.)
  C24: 48.6 dpm/mg
esophagus, high dose (42 μg i.t.)
  C24: 13.0 dpm/mg
esophagus, low dose (4.2 μg i.t.)
  C24: 8.8 dpm/mg
heart, high dose (42 μg i.t.)
  C24: 17.0 dpm/mg
heart, low dose (4.2 μg i.t.)
  C24: 3.2 dpm/mg
High dose (42 μg i.t.)
  blood/plasma ratio (blood-to-serum ratio): 0.89
kidney, high dose (42 μg i.t.)
  C24: 23.0 dpm/mg
kidney, low dose (4.2 μg i.t.)
  C24: 5.6 dpm/mg
liver, high dose (42 μg i.t.)
  C24: 22.0 dpm/mg
liver, low dose (4.2 μg i.t.)
  C24: 5.7 dpm/mg
Low dose (4.2 μg i.t.)
  blood/plasma ratio (blood-to-serum ratio): 0.89
lung, high dose (42 μg i.t.)
  C24: 44.0 dpm/mg
lung, low dose (4.2 μg i.t.)
  C24: 6.4 dpm/mg
muscle
  AUC, high dose compared to low dose: 15.7 fold
muscle, high dose (42 μg i.t.)
  C24: 10.0 dpm/mg
muscle, low dose (4.2 μg i.t.)
  C24: 3.2 dpm/mg
pancreas, high dose (42 μg i.t.)
  C24: 93.0 dpm/mg
pancreas, low dose (4.2 μg i.t.)
  C24: 29.5 dpm/mg
prostate
  AUC, high dose compared to low dose: 17.1 fold
prostate, high dose (42 μg i.t.)
  C24: 89.0 dpm/mg
prostate, low dose (4.2 μg i.t.)
  C24: 15.9 dpm/mg
serum
  serum AUC0–24 h, high dose compared to low dose: approximately 10 fold
serum, high dose (42 μg i.t.), Table 1 prints mean (C–V%) without naming the dose
  T1/2: 12 h
serum, low dose (4.2 μg i.t.)
  C24: 0.80 dpm/mg
skin
  AUC, high dose compared to low dose: 15.1 fold
skin, high dose (42 μg i.t.)
  C24: 155 dpm/mg
skin, low dose (4.2 μg i.t.)
  C24: 34.2 dpm/mg
spleen
  AUC, high dose compared to low dose: 16.4 fold
spleen, high dose (42 μg i.t.)
  C24: 18.0 dpm/mg
spleen, low dose (4.2 μg i.t.)
  C24: 3.2 dpm/mg
testis, high dose (42 μg i.t.)
  C24: 6.0 dpm/mg
testis, low dose (4.2 μg i.t.)
  C24: 1.6 dpm/mg
thymus, high dose (42 μg i.t.)
  C24: 23.0 dpm/mg
thymus, low dose (4.2 μg i.t.)
  C24: 4.8 dpm/mg
thyroid, high dose (42 μg i.t.)
  C24: 72.0 dpm/mg
thyroid, low dose (4.2 μg i.t.)
  C24: 9.6 dpm/mg
trachea, high dose (42 μg i.t.)
  C24: 86.0 dpm/mg
trachea, low dose (4.2 μg i.t.)
  C24: 21.5 dpm/mg
